Experimental data: patent publication US8969360B2, “Compounds useful as inhibitors of ATR kinase” (Vertex Pharmaceuticals Incorporated, priority 2013, dated 2015)

What was measured:
ATR kinase = biological target: T1, ATR kinase (Homo sapiens, UniProt Q13535); assay: ATR Inhibition Assay (radioactive-phosphate incorporation); format: biochemical; conditions: Ki(app); 5 nM full-length ATR, 10 μM ATP, 800 μM target peptide, 25° C.
T1 construct: Assays were carried out at 25° C. in the presence of 5 nM full-length ATR
In short: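 Full-length ATR (5 nM) in 50 mM Tris/HCl pH 7.5, 10 mM MgCl2, 1 mM DTT, with 800 μM peptide substrate and 10 μM [γ-33P]ATP at 25 °C. Compounds (from 15 μM final, 3-fold dilutions, 7% DMSO) were preincubated 10 min; the reaction was stopped at 24 h. 33P incorporation was captured on phosphocellulose; Ki(app) was from non-linear regression of initial rates.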

[1] = tested on: HCT116 colorectal cancer cells; assay: Cisplatin Sensitization Assay (96 h cell viability MTS); format: cell-based; conditions: concentration of compound required to reduce the IC50 of Cisplatin alone by at least 3-fold; HCT116, 96 h MTS
In short: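 HCT116 cells received compound and cisplatin together as a full matrix of 2-fold dilutions, each from a 10 μM top final concentration. After 96 h at 37 °C and 5% CO2, viability was read by MTS (1 h, A490). The value is the compound concentration that lowers the cisplatin IC50 at least 3-fold.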

T1 sequence (Q13535 whole entry): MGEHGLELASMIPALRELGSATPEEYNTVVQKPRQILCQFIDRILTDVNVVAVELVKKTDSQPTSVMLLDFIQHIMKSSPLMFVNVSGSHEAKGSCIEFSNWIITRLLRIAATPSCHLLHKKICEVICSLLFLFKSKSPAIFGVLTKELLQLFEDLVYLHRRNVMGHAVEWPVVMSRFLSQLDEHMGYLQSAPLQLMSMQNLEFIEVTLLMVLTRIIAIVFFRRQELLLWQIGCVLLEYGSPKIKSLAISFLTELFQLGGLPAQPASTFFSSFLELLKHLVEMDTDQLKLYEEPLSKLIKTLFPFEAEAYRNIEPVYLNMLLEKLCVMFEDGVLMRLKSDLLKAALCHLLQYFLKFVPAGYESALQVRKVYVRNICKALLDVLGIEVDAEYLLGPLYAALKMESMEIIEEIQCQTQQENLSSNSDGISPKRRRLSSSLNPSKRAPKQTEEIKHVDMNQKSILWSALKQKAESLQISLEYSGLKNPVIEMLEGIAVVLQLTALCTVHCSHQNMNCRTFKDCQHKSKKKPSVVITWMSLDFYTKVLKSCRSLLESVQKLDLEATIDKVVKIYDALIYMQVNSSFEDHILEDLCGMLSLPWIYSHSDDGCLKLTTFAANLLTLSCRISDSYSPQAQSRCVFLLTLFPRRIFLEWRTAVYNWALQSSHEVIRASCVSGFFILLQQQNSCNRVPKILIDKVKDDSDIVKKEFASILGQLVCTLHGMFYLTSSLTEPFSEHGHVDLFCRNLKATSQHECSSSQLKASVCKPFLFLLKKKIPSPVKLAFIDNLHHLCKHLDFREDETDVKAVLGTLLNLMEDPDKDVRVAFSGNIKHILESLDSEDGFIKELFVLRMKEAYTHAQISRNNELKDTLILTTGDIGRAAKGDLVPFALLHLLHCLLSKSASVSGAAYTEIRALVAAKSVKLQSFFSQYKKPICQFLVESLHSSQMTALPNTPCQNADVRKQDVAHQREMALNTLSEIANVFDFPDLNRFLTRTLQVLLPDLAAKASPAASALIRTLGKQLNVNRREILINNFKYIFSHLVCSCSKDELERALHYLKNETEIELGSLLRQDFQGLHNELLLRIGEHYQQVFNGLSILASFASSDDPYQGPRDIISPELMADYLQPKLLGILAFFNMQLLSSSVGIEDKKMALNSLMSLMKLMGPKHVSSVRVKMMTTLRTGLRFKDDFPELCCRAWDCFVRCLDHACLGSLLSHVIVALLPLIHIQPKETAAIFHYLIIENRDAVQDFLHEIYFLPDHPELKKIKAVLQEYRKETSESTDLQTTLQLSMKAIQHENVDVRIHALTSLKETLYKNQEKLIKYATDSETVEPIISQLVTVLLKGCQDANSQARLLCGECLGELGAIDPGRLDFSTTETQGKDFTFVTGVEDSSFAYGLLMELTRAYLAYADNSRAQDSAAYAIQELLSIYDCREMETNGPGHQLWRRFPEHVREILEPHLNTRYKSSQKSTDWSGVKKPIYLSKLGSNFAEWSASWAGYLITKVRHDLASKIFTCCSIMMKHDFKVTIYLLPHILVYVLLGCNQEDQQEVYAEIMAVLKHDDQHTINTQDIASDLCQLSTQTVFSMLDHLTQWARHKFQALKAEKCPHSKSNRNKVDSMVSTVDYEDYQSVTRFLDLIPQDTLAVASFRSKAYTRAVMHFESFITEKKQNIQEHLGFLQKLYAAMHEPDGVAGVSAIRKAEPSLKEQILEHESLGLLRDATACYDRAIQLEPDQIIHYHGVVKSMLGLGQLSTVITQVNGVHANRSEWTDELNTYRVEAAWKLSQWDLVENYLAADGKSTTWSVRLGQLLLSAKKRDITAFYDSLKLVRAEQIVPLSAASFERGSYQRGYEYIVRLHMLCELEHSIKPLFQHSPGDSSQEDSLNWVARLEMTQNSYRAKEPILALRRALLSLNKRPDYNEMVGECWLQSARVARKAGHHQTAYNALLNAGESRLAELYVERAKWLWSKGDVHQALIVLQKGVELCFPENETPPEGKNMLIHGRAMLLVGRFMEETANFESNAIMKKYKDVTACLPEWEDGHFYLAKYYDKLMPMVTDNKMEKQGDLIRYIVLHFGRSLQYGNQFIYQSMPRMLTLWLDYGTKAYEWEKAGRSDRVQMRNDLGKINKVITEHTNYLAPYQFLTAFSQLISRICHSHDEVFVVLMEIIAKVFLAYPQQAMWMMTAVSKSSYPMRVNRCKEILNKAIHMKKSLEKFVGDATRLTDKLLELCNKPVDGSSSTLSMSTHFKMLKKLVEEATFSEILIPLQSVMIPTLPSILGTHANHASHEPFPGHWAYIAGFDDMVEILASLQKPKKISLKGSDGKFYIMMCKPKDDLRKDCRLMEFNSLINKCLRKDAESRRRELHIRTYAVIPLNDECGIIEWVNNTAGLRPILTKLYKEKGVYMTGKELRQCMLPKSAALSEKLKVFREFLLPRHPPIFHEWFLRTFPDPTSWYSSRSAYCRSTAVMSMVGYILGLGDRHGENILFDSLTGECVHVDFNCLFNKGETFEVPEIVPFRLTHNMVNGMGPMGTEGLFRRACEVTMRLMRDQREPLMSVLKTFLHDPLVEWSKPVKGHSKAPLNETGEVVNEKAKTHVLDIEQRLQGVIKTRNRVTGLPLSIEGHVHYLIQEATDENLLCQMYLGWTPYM

Row | Structure (SMILES) | Ki (ATR kinase) [nM] | Synergy with Cisplatin [1]
1 | COc1ccncc1NC(=O)c1c(N)nn2ccc(NCCN(C)C)nc12 [I-O-70, 2-amino-5-((2-(dimethylamino)ethyl)amino)-N-(4-methoxypyridin-3-yl)pyrazolo[1,5-a]pyrimidine-3-carboxamide] | 10 to 1000 | + (Compounds with a Cisplatin sensitization value >0.2 μM but <5 μM are marked with “+.”)
2 | COc1cc(Cl)ncc1NC(=O)c1c(N)nn2ccc(C(F)(F)F)nc12 [I-O-47, 2-amino-N-(6-chloro-4-methoxypyridin-3-yl)-5-(trifluoromethyl)pyrazolo[1,5-a]pyrimidine-3-carboxamide] | 10 to 1000 | ++ (Compounds with a Cisplatin sensitization value>0.02 μM but <0.2 μM are marked with “++.”)
3 | COCCN1CCC[C@@H](Oc2ccncc2NC(=O)c2c(N)nn3ccc(C(F)(F)F)nc23)C1 [I-O-43, (R)-2-amino-N-(4-((1-(2-methoxyethyl)piperidin-3-yl)oxy)pyridin-3-yl)-5-(trifluoromethyl)pyrazolo[1,5-a]pyrimidine-3-carboxamide] | 10 to 1000 | ++ (Compounds with a Cisplatin sensitization value>0.02 μM but <0.2 μM are marked with “++.”)
4 | CN(C)CCOCCOc1ccncc1NC(=O)c1c(N)nn2ccc(C(F)(F)F)nc12 [I-O-36, 2-amino-N-(4-(2-(2-(dimethylamino)ethoxy)ethoxy)pyridin-3-yl)-5-(trifluoromethyl)pyrazolo[1,5-a]pyrimidine-3-carboxamide] | 10 to 1000 | ++ (Compounds with a Cisplatin sensitization value>0.02 μM but <0.2 μM are marked with “++.”)
5 | COc1ccncc1NC(=O)c1c(N)nn2ccc(N3CCC(N(C)C)CC3)nc12 [I-O-80, 2-amino-5-(4-(dimethylamino)piperidin-1-yl)-N-(4-methoxypyridin-3-yl)pyrazolo[1,5-a]pyrimidine-3-carboxamide] | 10 to 1000 | + (Compounds with a Cisplatin sensitization value >0.2 μM but <5 μM are marked with “+.”)

Continued, in another order:

Row | Ki (ATR kinase) [nM] | Structure (SMILES) | Synergy with Cisplatin [1]
6 | 10 to 1000 | COc1ccncc1NC(=O)c1c(N)nn2ccc(OCCCN3CCC3)nc12 [I-O-63, 2-amino-5-(3-(azetidin-1-yl)propoxy)-N-(4-methoxypyridin-3-yl)pyrazolo[1,5-a]pyrimidine-3-carboxamide] | ++ (Compounds with a Cisplatin sensitization value>0.02 μM but <0.2 μM are marked with “++.”)
7 | 10 to 1000 | Nc1nn2ccc(C(F)(F)F)nc2c1C(=O)Nc1cnccc1OC1CNC1 [I-O-18, 2-amino-N-(4-(azetidin-3-yloxy)pyridin-3-yl)-5-(trifluoromethyl)pyrazolo[1,5-a]pyrimidine-3-carboxamide] | ++ (Compounds with a Cisplatin sensitization value>0.02 μM but <0.2 μM are marked with “++.”)
8 | 10 to 1000 | CN1CCC[C@@H]1COc1ccncc1NC(=O)c1c(N)nn2ccc(C(F)(F)F)nc12 [I-O-28, (R)-2-amino-N-(4-((1-methylpyrrolidin-2-yl)methoxy)pyridin-3-yl)-5-(trifluoromethyl)pyrazolo[1,5-a]pyrimidine-3-carboxamide] | ++ (Compounds with a Cisplatin sensitization value>0.02 μM but <0.2 μM are marked with “++.”)
